Test results: patent publication US9150566B2, “2-(1,2,3-triazol-2-yl)benzamide and 3-(1,2,3-triazol-2-YL)picolinamide derivatives as orexin receptor antagonists” (ACTELION PHARMACEUTICALS LTD., priority 2011, dated 2015)
Read-outs that look alike come from different tables or passages of the source.

Tests used:
[1] = Measurement of brain and systemic concentration after oral administration; format: in vivo; details: rat, brain, male wistar rats, oral 100 mg/kg, read-out: brain concentration [B]; for concentration at 3 h: formulated in 100% PEG400, sampled at 3 h; for concentration at 1 h: formulated in 10% PEG400/90% MC0.5%, sampled at 1 h
Experimental: Measurement of Brain and Systemic Concentration after Oral Administration:
In order to assess brain penetration, the concentration of the compound is measured in plasma ([P]), and brain ([B]), sampled 1 h or 3 h (or at different time points) following oral administration (100 mg/kg) to male wistar rats (n=3). The compounds are formulated either in 100% PEG 400 or 10% PEG400/90% MC0.5%. Samples are collected in the same animal at the same time point (+/−5 min). Blood is sampled from the vena cava caudalis into containers with EDTA as anticoagulant and centrifuged to yield plasma. Brain is sampled after cardiac perfusion of 10 mL NaCl 0.9% and homogenized into one volume of cold phosphate buffer (pH 7.4). All samples are extracted with MeOH and analyzed by LC-MS/MS. Concentrations are determined with the help of calibration curves. Inter-individual variations between the three rats were limited. Particular compounds of the present invention tested as described above gave brain concentrations ([B]) as shown in Table 16 below; wherein the compounds of Examples 11-37 and 94 were formulated in 100% PEG400 and sampled at 3 h. All other examples below were formulated in 10% PEG400/90% MC0.5% and sampled at 1 h.

[2] = biological target: human orexin-1 receptor (Homo sapiens (Human), UniProt O43613); experiment: In vitro intracellular calcium measurements (FLIPR), antagonistic activity on orexin-1 receptor; format: cell-based; details: read-out: IC50 OX1
Method in brief: (§1)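 Recombinant CHO lines bearing human OX1 or OX2 receptors received test antagonist 120 min before agonist addition.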

[3] = biological target: human orexin-2 receptor (Homo sapiens (Human), UniProt O43614); experiment: In vitro intracellular calcium measurements (FLIPR), antagonistic activity on orexin-2 receptor; format: cell-based; details: read-out: IC50 OX2
Method in brief: as §1

[4] = biological target: CYP3A4 (Homo sapiens (Human), UniProt P08684); experiment: CYP3A4 inhibition assay (human liver microsomes, testosterone 6β-hydroxylation); details: read-out: CYP3A4 IC50, 40 μM testosterone
Experimental: The CYP3A4 inhibition assay was performed using human liver microsomes and testosterone 6β-hydroxylation as a P450 isoform-specific marker. In a total volume of 150 μL, ^14C-testosterone at a final concentration of 40 μM in a 100 mM phosphate buffer (pH 7.4) was incubated in a 96-well plate with 0.3 mg/mL of human liver microsomes in an Eppendorf thermomixer at 37° C. and 400 rpm. […] The reaction was initiated by addition of 15 μL of the NADPH-regenerating system containing the glucose-6-phosphate dehydrogenase and terminated after 7 min with a 75 μL-aliquot of methanol. After centrifugation at 465 g and 4° C. for 20 min, a 50 μL-aliquot of the supernatant was submitted to HPLC according to the method described below. The total concentration of DMSO in the assay including controls without inhibitor was 1%.
Nicardipine was run in parallel as a reference inhibitor of CYP3A4 activity at final concentrations of 0, 0.1, 0.5, 1.0, 5.0, 10, 25, and 50 μM. Stock solutions thereof were prepared in DMSO.
The chromatographic separation of testosterone and 6β-hydroxytestosterone was achieved on a Phenomenex Luna C18(2) column (5 μm, 2.0×10 mm) at RT with a flow rate of 0.6 mL/min. Mobile phases consisted of 1% aqueous formic acid (phase A) and methanol (phase B) using a gradient method with 0.9 min total run time.
The quantification of 6β-hydroxytestosterone was carried out using a quadrupole mass spectrometer equipped with an ionspray interface operating in positive ion mode. The parameters of the mass detector were set as follows: capillary voltage 5 kV, auxiliary gas 40 psi, collision gas 3 mTorr, and transfer capillary temperature 420° C.

[5] = CHO cells expressing human orexin-1 receptor, FLIPR, 3 nM orexin-A agonist, 120 min antagonist incubation, geometric mean if determined several times
[6] = CHO cells expressing human orexin-2 receptor, FLIPR, 3 nM orexin-A agonist, 120 min antagonist incubation, geometric mean if determined several times

human orexin-2 receptor, sequence (O43614 whole entry): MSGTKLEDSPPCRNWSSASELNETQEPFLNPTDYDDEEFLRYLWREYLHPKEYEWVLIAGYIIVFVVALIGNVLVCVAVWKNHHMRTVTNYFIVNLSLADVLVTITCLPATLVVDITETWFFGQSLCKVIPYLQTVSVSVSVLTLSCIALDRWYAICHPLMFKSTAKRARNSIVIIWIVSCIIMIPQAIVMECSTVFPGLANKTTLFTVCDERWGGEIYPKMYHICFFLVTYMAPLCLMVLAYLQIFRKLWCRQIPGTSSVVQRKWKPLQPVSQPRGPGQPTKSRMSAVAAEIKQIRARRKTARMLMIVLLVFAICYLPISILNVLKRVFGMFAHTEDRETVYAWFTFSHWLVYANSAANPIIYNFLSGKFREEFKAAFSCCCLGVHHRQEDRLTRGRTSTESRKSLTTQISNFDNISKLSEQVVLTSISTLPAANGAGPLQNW
CYP3A4, sequence (P08684 whole entry): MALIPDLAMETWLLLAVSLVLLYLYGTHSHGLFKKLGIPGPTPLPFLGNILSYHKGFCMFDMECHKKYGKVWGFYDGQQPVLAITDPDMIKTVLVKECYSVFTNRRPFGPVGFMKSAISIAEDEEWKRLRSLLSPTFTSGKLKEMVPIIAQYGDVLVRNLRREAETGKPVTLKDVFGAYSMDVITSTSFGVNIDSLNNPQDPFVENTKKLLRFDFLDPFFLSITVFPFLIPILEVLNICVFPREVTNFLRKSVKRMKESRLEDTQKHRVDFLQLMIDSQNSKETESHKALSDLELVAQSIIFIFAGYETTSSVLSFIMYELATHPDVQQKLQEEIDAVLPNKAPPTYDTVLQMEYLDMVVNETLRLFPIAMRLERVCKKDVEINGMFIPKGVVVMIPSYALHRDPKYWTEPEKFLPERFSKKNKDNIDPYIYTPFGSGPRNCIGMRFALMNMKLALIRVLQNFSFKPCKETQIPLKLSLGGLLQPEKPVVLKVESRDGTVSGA
human orexin-1 receptor, sequence (O43613 whole entry): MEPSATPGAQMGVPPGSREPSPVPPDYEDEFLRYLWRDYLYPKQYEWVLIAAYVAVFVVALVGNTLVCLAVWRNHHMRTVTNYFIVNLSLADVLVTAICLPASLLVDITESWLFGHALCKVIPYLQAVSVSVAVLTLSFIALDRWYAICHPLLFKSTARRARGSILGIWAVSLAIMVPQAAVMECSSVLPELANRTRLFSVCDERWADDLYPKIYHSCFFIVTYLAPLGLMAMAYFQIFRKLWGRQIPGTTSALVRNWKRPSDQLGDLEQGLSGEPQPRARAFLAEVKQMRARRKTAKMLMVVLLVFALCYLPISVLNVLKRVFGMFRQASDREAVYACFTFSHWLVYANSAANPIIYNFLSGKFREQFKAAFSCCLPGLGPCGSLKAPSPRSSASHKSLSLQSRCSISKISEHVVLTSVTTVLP

SMILES | concentration at 3 h [1] [ng/g] | IC50 [2, 5] [µM] | IC50 [4] [µM] | IC50 [3, 6] [µM] | concentration at 1 h [1] [ng/g] | IC50 [2] [µM] | IC50 [3] [µM]
Cc1ccc(-n2nccn2)c(C(=O)N2CCOC[C@H]2Cc2cccc(-n3nccn3)c2)c1 [Example 11, (5-Methyl-2-[1,2,3]triazol-2-yl-phenyl)-[(R)-3-(3-[1,2,3]triazol-2-yl-benzyl)-morpholin-4-yl]-methanone] | 46 |  |  |  |  | 0.002 | 0.196
O=C(c1ccccc1-n1nccn1)N1CCOC[C@H]1Cc1cccc(-n2nccn2)c1 [Example 12, [(R)-3-(3-[1,2,3]Triazol-2-yl-benzyl)-morpholin-4-yl]-(2-[1,2,3]triazol-2-yl-phenyl)-methanone] | 11900 | 0.017 | 30 | 1.24 |  |  | 
O=C(c1ccccc1-n1nccn1)N1CCOC[C@H]1Cc1cccc(-n2cccn2)c1 [Example 16, [(R)-3-(3-Pyrazol-1-yl-benzyl)-morpholin-4-yl]-(2-[1,2,3]triazol-2-yl-phenyl)-methanone] | 160 | 0.03 | 43 | 1.82 |  |  | 
Cc1ccc(C(=O)N2CCOC[C@H]2Cc2cccc(-n3nccn3)c2)c(-n2nccn2)c1 [Example 27, (4-Methyl-2-[1,2,3]triazol-2-yl-phenyl)-[(R)-3-(3-[1,2,3]triazol-2-yl-benzyl)-morpholin-4-yl]-methanone] | 5500 |  | 31 |  |  | 0.002 | 0.274
Cc1ccc(-n2nccn2)c(C(=O)N2CCOC[C@H]2Cc2cccc(-n3nccn3)c2)c1F [Example 29, (2-Fluoro-3-methyl-6-[1,2,3]triazol-2-yl-phenyl)-[(R)-3-(3-[1,2,3]triazol-2-yl-benzyl)-morpholin-4-yl]-methanone] | 423 | 0.004 | 39 | 0.333 |  |  | 
Cc1ccc(C(=O)N2CCOC[C@H]2Cc2cc(-c3ncccn3)ccc2F)c(-n2nccn2)c1 [Example 156, [(R)-3-(2-Fluoro-5-pyrimidin-2-yl-benzyl)-morpholin-4-yl]-(4-methyl-2-[1,2,3]triazol-2-yl-phenyl)-methanone] |  |  | > 50 | 0.571 | 613 |  | 
Cc1ccc(C(=O)N2CCOC[C@H]2Cc2cc(-c3ncon3)ccc2F)c(-n2nccn2)c1C [Example 181, (3,4-Dimethyl-2-[1,2,3]triazol-2-yl-phenyl)-[(R)-3-(2-fluoro-5-[1,2,4]oxadiazol-3-yl-benzyl)-morpholin-4-yl]-methanone] |  | 0.011 | 36 | 1.57 |  |  | 
Cc1ccc(C(=O)N2CCOC[C@H]2Cc2cccc(-n3nccn3)c2F)c(-n2nccn2)c1 [Example 183, [(R)-3-(2-Fluoro-3-[1,2,3]triazol-2-yl-benzyl)-morpholin-4-yl]-(4-methyl-2-[1,2,3]triazol-2-yl-phenyl)-methanone] |  |  | > 50 |  |  | 0.015 | 2.13
Cc1ccc(C[C@@H]2COCCN2C(=O)c2ccccc2-n2nccn2)cc1-c1ncccn1 [Example 192, [(R)-3-(4-Methyl-3-pyrimidin-2-yl-benzyl)-morpholin-4-yl]-(2-[1,2,3]triazol-2-yl-phenyl)-methanone] |  | 0.016 | > 50 | 2.61 |  |  | 
Cc1ccc(-n2nccn2)c(C(=O)N2CCC[C@H]2Cc2cccc(-n3nccn3)c2)c1 [Ref. 2] |  | 0.0005 | 3.3 | 0.008 |  |  | 
O=C(c1ccccc1-n1nccn1)N1CCCC[C@H]1Cc1cccc(-n2nccn2)c1 [Ref. 3] |  | 0.001 | 6.1 | 0.012 |  |  | 
Cc1ccc(-n2nccn2)c(C(=O)N2CCCC[C@H]2Cc2cccc(-n3nccn3)c2)c1 [Ref. 4] |  | 0.0003 | 7.7 | 0.002 |  |  | 

Further lines, with some results ahead:

concentration at 3 h [1] [ng/g] | IC50 [2, 5] [µM] | IC50 [4] [µM] | IC50 [3, 6] [µM] | concentration at 1 h [1] [ng/g] | SMILES | IC50 [2] [µM] | IC50 [3] [µM]
36 | 0.002 | 20 | 1.65 |  | Cc1ccc(-n2nccn2)c(C(=O)N2CCOC[C@H]2Cc2cccc(-n3cccn3)c2)c1F [Example 21, (2-Fluoro-3-methyl-6-[1,2,3]triazol-2-yl-phenyl)-[(R)-3-(3-pyrazol-1-yl-benzyl)-morpholin-4-yl]-methanone] |  | 
1870 | 0.004 | 17 | 0.199 |  | O=C(c1cc(Cl)ccc1-n1nccn1)N1CCOC[C@H]1Cc1cccc(-n2nccn2)c1 [Example 30, (5-Chloro-2-[1,2,3]triazol-2-yl-phenyl)-[(R)-3-(3-[1,2,3]triazol-2-yl-benzyl)-morpholin-4-yl]-methanone] |  | 
 |  | 29 | 0.404 | 4420 | Cc1ccc(C(=O)N2CCOC[C@H]2Cc2cc(-n3nccn3)ccc2F)c(-n2nccn2)c1 [Example 62, [(R)-3-(2-Fluoro-5-[1,2,3]triazol-2-yl-benzyl)-morpholin-4-yl]-(4-methyl-2-[1,2,3]triazol-2-yl-phenyl)-methanone] |  | 
 |  | 15 | 0.227 | 1880 | O=C(c1ccc(C(F)(F)F)cc1-n1nccn1)N1CCOC[C@H]1Cc1cccc(-c2ncon2)c1 [Example 87, [(R)-3-(3-[1,2,4]Oxadiazol-3-yl-benzyl)-morpholin-4-yl]-(2-[1,2,3]triazol-2-yl-4-trifluoromethyl-phenyl)-methanone] |  | 
 | 0.002 | 19 | 0.096 |  | C[C@@H]1CN(C(=O)c2cc(Cl)ccc2-n2nccn2)[C@H](Cc2cccc(-n3nccn3)c2)CO1 [Example 184, (5-Chloro-2-[1,2,3]triazol-2-yl-phenyl)-[(2R,5R)-2-methyl-5-(3-[1,2,3]triazol-2-yl-benzyl)-morpholin-4-yl]-methanone] |  | 
 | 0.002 | 20 | 0.039 |  | C[C@@H]1CN(C(=O)c2ccc(Cl)cc2-n2nccn2)[C@H](Cc2cccc(-n3nccn3)c2)CO1 [Example 185, (4-Chloro-2-[1,2,3]triazol-2-yl-phenyl)-[(2R,5R)-2-methyl-5-(3-[1,2,3]triazol-2-yl-benzyl)-morpholin-4-yl]-methanone] |  | 
 | 0.011 | 19 | 0.181 |  | C[C@@H]1CN(C(=O)c2cc(Cl)ccc2-n2nccn2)[C@H](Cc2cc(-n3nccn3)ccc2F)CO1 [Example 186, (5-Chloro-2-[1,2,3]triazol-2-yl-phenyl)-[(2R,5R)-5-(2-fluoro-5-[1,2,3]triazol-2-yl-benzyl)-2-methyl-morpholin-4-yl]-methanone] |  | 
 | 0.006 | 14 | 0.058 |  | C[C@@H]1CN(C(=O)c2ccc(Cl)cc2-n2nccn2)[C@H](Cc2cc(-n3nccn3)ccc2F)CO1 [Example 187, (4-Chloro-2-[1,2,3]triazol-2-yl-phenyl)-[(2R,5R)-5-(2-fluoro-5-[1,2,3]triazol-2-yl-benzyl)-2-methyl-morpholin-4-yl]-methanone] |  | 
 | 0.021 | 14 | 2.13 |  | Cc1ccc(-n2nccn2)c(C(=O)N2CCOC[C@H]2Cc2cc(-n3cccn3)ccc2C)c1 [Example 188, [(R)-3-(2-Methyl-5-pyrazol-1-yl-benzyl)-morpholin-4-yl]-(5-methyl-2-[1,2,3]triazol-2-yl-phenyl)-methanone] |  | 
 | 0.012 | 17 | 1.09 |  | Cc1ccc(C(=O)N2CCOC[C@H]2Cc2cc(-n3cccn3)ccc2C)c(-n2nccn2)c1 [Example 189, [(R)-3-(2-Methyl-5-pyrazol-1-yl-benzyl)-morpholin-4-yl]-(4-methyl-2-[1,2,3]triazol-2-yl-phenyl)-methanone] |  | 
 | 0.025 | 26 | 3.77 |  | Cc1ccc(-n2cccn2)cc1C[C@@H]1COCCN1C(=O)c1cccc(C)c1-n1nccn1 [Example 190, [(R)-3-(2-Methyl-5-pyrazol-1-yl-benzyl)-morpholin-4-yl]-(3-methyl-2-[1,2,3]triazol-2-yl-phenyl)-methanone] |  | 
 | 0.012 | 14 | 1.04 |  | Cc1ccc(-n2nccn2)cc1C[C@@H]1COCCN1C(=O)c1ccc(Cl)cc1-n1nccn1 [Example 191, (4-Chloro-2-[1,2,3]triazol-2-yl-phenyl)-[(R)-3-(2-methyl-5-[1,2,3]triazol-2-yl-benzyl)-morpholin-4-yl]-methanone] |  | 
 | 0.001 | 0.6 | 0.238 |  | Cc1ccc(C[C@@H]2COCCN2C(=O)c2ccccc2-n2nccn2)cc1-c1nccs1 [Example 193, [(R)-3-(4-Methyl-3-thiazol-2-yl-benzyl)-morpholin-4-yl]-(2-[1,2,3]triazol-2-yl-phenyl)-methanone] |  | 
